Data reported in patent US8871751B2, “Compositions and methods relating to nuclear hormone and steroid hormone receptors including inhibitors of estrogen receptor alpha-mediated gene expression and inhibition of breast cancer” (The Board of Trustees of the University of Illinois, priority 2008, dated 2014).
Entries after “also recorded” stand apart in the source; their conditions may differ.

Legend:
GR = target: T1, GR (Rattus norvegicus, UniProt P06536); assay: GR transactivation, MMTV-luciferase reporter in T47D cells; type: cell-based, human
T1 construct: expressed in transfected cells; host or cells: T47D/A1-2
T1 sequence (P06536 1-795): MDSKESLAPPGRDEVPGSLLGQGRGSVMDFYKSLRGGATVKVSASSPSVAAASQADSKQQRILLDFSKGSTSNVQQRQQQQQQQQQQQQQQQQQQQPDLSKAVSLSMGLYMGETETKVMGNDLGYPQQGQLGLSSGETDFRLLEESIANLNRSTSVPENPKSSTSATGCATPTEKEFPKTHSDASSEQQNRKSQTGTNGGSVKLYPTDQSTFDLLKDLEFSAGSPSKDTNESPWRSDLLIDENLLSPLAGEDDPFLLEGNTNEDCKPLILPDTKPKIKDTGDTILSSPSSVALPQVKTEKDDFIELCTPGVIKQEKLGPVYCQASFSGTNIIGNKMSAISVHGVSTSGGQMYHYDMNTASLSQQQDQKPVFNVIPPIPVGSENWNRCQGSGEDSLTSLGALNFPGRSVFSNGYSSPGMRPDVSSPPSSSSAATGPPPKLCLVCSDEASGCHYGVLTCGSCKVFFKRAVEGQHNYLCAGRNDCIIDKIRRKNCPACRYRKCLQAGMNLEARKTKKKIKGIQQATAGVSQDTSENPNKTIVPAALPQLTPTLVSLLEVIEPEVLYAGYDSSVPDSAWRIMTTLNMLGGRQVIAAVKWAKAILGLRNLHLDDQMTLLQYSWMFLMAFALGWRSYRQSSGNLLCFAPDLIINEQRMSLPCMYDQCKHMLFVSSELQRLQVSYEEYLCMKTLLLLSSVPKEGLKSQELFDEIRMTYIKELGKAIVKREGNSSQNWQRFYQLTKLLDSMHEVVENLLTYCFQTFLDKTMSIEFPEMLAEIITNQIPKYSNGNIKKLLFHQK
Experimental: The T47D-KBluc cells stably express an (ERE)3-luciferase reporter gene (38). Cells were maintained in phenol red-free RPMI 1640 with 2 mM L-glutamine, 1.5 g/l sodium bicarbonate, 4.5 g/l glucose, 10 mM Hepes, pH 7.5, 1 mM sodium pyruvate, 10% FBS (Atlanta Biological, Atlanta, Ga.) and antibiotics. Four days before E2 induction, the cells were switched to the above medium, with 10% 2× charcoal-dextran-treated calf serum instead of FBS. 200,000 cells/well were transferred to each well of a 24-well plate. After 24 h the indicated concentrations of the test compounds were added in DMSO and E2 was added to 20 pM. After 24 h cells were washed once in PBS, and 150 μl 1× Passive Lysis Buffer (Promega, Madison Wis.) was used to lyse the cells. Luciferase activity was determined using firefly luciferase reagents from Promega (Madison, Wis.). T47D cells stably transfected to express GR and a mouse mammary tumor virus luciferase reporter that responds to liganded GR and PR were maintained and assayed in medium containing 5 nM progesterone for PR assays, or 2.5 nM dexamethsaone for GR assays, essentially as described (39).
Reporter Gene Assays. TPSF was identified by reporter gene assays comparing the ability of ˜200 compounds structurally related to TPBM (see reference 19) to inhibit transcription of a stably transfected (ERE)3-luciferase reporter gene in T47D-KBluc breast cancer cells (20). AR was assayed in stably transfected HeLa cells and GR was assayed in stably transfected T47D cells maintained as described above. Four days before each experiment the cells were switched to medium containing CD-treated serum as described above. The HeLaAR cells were plated at 100,000 cells/well and the T47D/A1-2 and T47D-KBluc cells were plated at 200,000 cells/well in 1 ml of their respective media in 24-well plates. After 24 hours the indicated concentrations of E2, dihydrotestosterone (DHT) or dexamethasone (Dex) and DMSO vehicle, with or without TPSF, were added to each well. After 24 hours, the cells were washed once in phosphate buffered saline and lysed using 100 μl of 1× Passive Lysis Buffer (Promega, Madison Wis.). Luciferase activity was determined using BrightGlo firefly luciferase reagent from Promega (Madison, Wis.).

ERα = target: T2, ERα (Homo sapiens, UniProt P03372); assay: Estrogen induction of cyclin D1 mRNA in MCF-7 cells; type: cell-based; parameters: endogenous in cells; details: 10 μM, 10 nM E2, 24 h
T2 sequence (P03372 1-595): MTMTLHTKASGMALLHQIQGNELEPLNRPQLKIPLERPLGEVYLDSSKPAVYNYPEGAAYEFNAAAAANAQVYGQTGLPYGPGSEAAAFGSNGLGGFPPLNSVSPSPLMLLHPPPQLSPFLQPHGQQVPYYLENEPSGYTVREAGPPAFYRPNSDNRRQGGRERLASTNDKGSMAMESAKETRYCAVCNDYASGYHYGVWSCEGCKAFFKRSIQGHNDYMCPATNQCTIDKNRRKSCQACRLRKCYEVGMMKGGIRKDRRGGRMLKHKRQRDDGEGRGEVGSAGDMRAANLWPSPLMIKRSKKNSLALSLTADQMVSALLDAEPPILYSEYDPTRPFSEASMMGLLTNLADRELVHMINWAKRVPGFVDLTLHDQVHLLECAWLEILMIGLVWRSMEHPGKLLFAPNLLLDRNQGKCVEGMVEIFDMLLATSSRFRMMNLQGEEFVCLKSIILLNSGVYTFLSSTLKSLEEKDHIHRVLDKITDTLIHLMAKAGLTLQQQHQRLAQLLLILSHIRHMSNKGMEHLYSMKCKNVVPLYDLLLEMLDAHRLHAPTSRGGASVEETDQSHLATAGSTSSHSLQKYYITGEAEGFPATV
Experimental: FIG. 15 illustrates results of testing for inhibition of the estrogen induction of Cyclin D1 mRNA. MCF-7 cells were plated and 24 h later treated with ethanol vehicle, 10 nM E2, or 10 nM E2 and 10 μM TPSF. Cells were maintained for 24 hours, RNA was extracted and cyclin D1 mRNA levels were measured by qRT-PCR. Cyclin D1 mRNA levels in the vehicle only sample were set to 1. Data is the average±SEM for 3 experiments each assayed in triplicate.
Endogenous Gene Expression. MCF-7 cells or MCF7ERαHA cells were maintained for 4 days in medium containing 5% CD calf serum (MCF-7 cells) or 10% 6×CD-FBS (MCF7ERαHA cells). In assays of TPSF inhibition of PI-9 induction, cells were plated, incubated for 24 hours in the indicated concentrations of TPSF and then maintained 4 hours with and without E2, with and without TPSF. To induce ERα, MCF7ERαHA cells were also maintained in 0.5 μg/ml Dox for 24 hours prior to addition of E2 or OHT with or without TPSF. For induction of cyclin D1, 24 hours after plating the cells, E2 with and without TPSF was added, the cells were maintained for 24 hours, RNA was extracted and mRNA levels were determined by quantitative RT-PCR as described (19, 26). Actin mRNA levels were used as the qRT-PCR internal standard. The primers and sequences used in qRT-PCR were as follows.

Cn1c(=O)c2nc(CSCc3ccccc3)[nH]c2n(C)c1=O [Compound 95910, 8-Benzylsulfanylmethyl-1,3-dimethyl-3,7-dihydro-purine-2,6-dione]
inhibition at 30 µM (GR; T47D, 30 μM, 2.5 nM dexamethasone): ~35% | effect on GR transactivation (GR; up to 20 μM, 2.5 nM dexamethasone): did not inhibit

Cn1c(=S)c2[nH]c(SCCCC(=O)c3ccc(F)cc3)nc2n(C)c1=O [TPSF, Butyrophenone, p-fluoro-4-(1,2,3,6,-tetrahydro-1,3-dimethyl-2-oxo-6-thionopurin-8-ylthio)]
IC50 (GR; stably transfected T47D cells, 100 nM Dex, 24 h, read-out: IC50 for inhibition of GR gene expression (MMTV-Luc)): 10 µM | effect on E2 induction of cyclin D1 mRNA (ERα): completely inhibited; also recorded: abolished
